Patent US20090247646A1, “USE OF RESVERATROL AND DERIVATIVES THEREOF FOR PROMOTING THE WELLNESS STATE IN MAMMALS” (priority 2006, published 2009)
“And” between values parts separate entries of the source, which are not always exact repeats. Identical values can stand only once.

System: gene expression in heart tissue
Experiment: Genome-wide gene expression in heart tissue of old mice fed a resveratrol-supplemented diet (Affymetrix Mouse Genome 430 2.0 array)
Format: in vivo
[1] = anaphase-promoting complex subunit 5, Genebank ID AK003821
[2] = calreticulin 3, Genebank ID AI324734
[3] = casein kinase II, alpha 1 polypeptide, Genebank ID BB283759
[4] = cathepsin B, Genebank ID M14222
[5] = cathepsin Z, Genebank ID NM_022325
[6] = cylindromatosis (turban tumor syndrome), Genebank ID AK013508
[7] = dual specificity phosphatase 6, Genebank ID NM_026268
[8] = dynein, cytoplasmic, heavy chain 1, Genebank ID NM_030238
[9] = dystrophia myotonica kinase, B15, Genebank ID AW108486
[10] = eukaryotic translation elongation factor 2, Genebank ID BC007152
[11] = eukaryotic translation initiation factor 2, subunit 3, structural gene X-linked, Genebank ID NM_012010
[12] = eukaryotic translation initiation factor 3, subunit 10 (theta), Genebank ID AW701127
[13] = eukaryotic translation initiation factor 4, gamma 1, Genebank ID BF227830
[14] = eukaryotic translation initiation factor 4A1, Genebank ID BI656407
[15] = eukaryotic translation initiation factor 4E like 3, Genebank ID AI449084
[16] = expressed sequence AI663987, Genebank ID BB764994
[17] = expressed sequence AW319487, Genebank ID NM_054085
[18] = f-box only protein 9, Genebank ID AK018482
[19] = f-box only protein 9, Genebank ID NM_023605
[20] = furin (paired basic amino acid cleaving enzyme), Genebank ID NM_011046
[21] = gene trap locus 6, Genebank ID BG923744
[22] = glutamyl-prolyl-tRNA synthetase, Genebank ID BM238943
[23] = golgi associated, gamma adaptin ear containing, ARF binding protein 3, Genebank ID BB501734
[24] = heat shock protein 1, beta, Genebank ID BI154147
[25] = homocysteine-inducible, endoplasmic reticulum stress-inducible, ubiquitin-like domain member 1, Genebank ID AI835088
[26] = homocysteine-inducible, endoplasmic reticulum stress-inducible, ubiquitin-like domain member 1, Genebank ID NM_022331
[27] = insulin degrading enzyme, Genebank ID AV027702
[28] = isoprenylcysteine carboxyl methyltransferase, Genebank ID BF462080
[29] = large tumor suppressor 2, Genebank ID BE986745
[30] = lipocalin 7, Genebank ID BC005738
[31] = membrane metallo endopeptidase [BLAST], Genebank ID AV174022
[32] = methionyl aminopeptidase 1, Genebank ID BG064851
[33] = microtubule associated serine/threonine kinase 2, Genebank ID NM_008641
[34] = mitochondrial ribosomal protein L9, Genebank ID AK021196
[35] = mitochondrial ribosomal protein L27, Genebank ID NM_053161
[36] = mitochondrial ribosomal protein L43, Genebank ID NM_053164
[37] = mitogen activated protein kinase kinase kinase 4, Genebank ID U11548
[38] = myotubularin related protein 1, Genebank ID BB381813
[39] = myotubularin related protein 6, Genebank ID BC020019
[40] = neural precursor cell expressed, developmentally down-regulted gene 4, Genebank ID BG073415
[41] = proteasome (prosome, macropain) subunit, alpha type 2, Genebank ID NM_008944
[42] = protein kinase inhibitor, alpha, Genebank ID AK010212
[43] = protein kinase, interferon inducible double stranded RNA dependent activator, Genebank ID NM_011871
[44] = protein phosphatase 1B, magnesium dependent, beta isoform, Genebank ID AJ271833
[45] = protein tyrosine phosphatase 4a2, Genebank ID AW495875
[46] = protein tyrosine phosphatase 4a3, Genebank ID AK014601
[47] = protein tyrosine phosphatase, non-receptor type 21, Genebank ID AW987375
[48] = protein tyrosine phosphatase-like (proline instead of catalytic arginine), member a, Genebank ID BB014781
[49] = puromycin-sensitive aminopeptidase, Genebank ID AK010446
[50] = ribonuclease P2, Genebank ID BG069849
[51] = ribosome binding protein 1, Genebank ID AK019964
[52] = ring finger protein 13, Genebank ID NM_011883
[53] = sarcolemma associated protein, Genebank ID NM_032008
[54] = serum/glucocorticoid regulated kinase, Genebank ID NM_011361
[55] = sialyltransferase 10 (alpha-2,3-sialyltransferase VI), Genebank ID NM_018784
[56] = suppressor of initiator codon mutations, related sequence 1 (S. cerevisiae), Genebank ID BI693609
[57] = synaptojanin 2 binding protein, Genebank ID AK008254
[58] = tousled-like kinase 1, Genebank ID BM244995
[59] = transferrin receptor, Genebank ID AK011596
[60] = transient receptor potential cation channel, subfamily M, member 7, Genebank ID AV320241
[61] = tumor rejection antigen gp96, Genebank ID BE995678
[62] = ubiquitin protein ligase E3 component n-recognin 1, Genebank ID BQ173927
[63] = ubiquitin specific protease 3, Genebank ID BM936366
[64] = ubiquitin specific protease 10, Genebank ID NM_009462
[65] = ubiquitin-conjugating enzyme E2D 3 (UBC4/5 homolog, yeast), Genebank ID AK009276

Oc1ccc(/C=C/c2cc(O)cc(O)c2)cc1 [resveratrol, 3,4′,5-Trihydroxy-trans-stilbene]
share of genes that resembled or exceeded the expression level of the young group (among genes changed by resveratrol treatment, heart): 58.1% | % of res effect [1]: 74.85% | Median RES [1]: 33166 | Median RES (basic leucine zipper and W2 domains 1, Genebank ID AV144956 (three lines), listed as RES): 19500 and 38679 and 25745 | % of res effect (basic leucine zipper and W2 domains 1, Genebank ID AV144956 (three lines), listed as res): 83.81% and 115.0685% and 138.536% | % of res effect (calnexin, Genebank ID BI653492): 100.0356% | Median RES (calnexin, Genebank ID BI653492): 30204 | % of res effect [2]: 114.042% | Median RES [2]: 8927 | % of res effect [3]: 134.9706% | Median RES [3]: 5588 | % of res effect [4]: 76.17% | Median RES [4]: 194089 | % of res effect [5]: 116.4892% | Median RES [5]: 43097 | % of res effect (cullin 3, Genebank ID AV273804): 77.09% | Median RES (cullin 3, Genebank ID AV273804): 22604 | % of res effect [6]: 103.8541% | Median RES [6]: 8255 | expression of genes involved in protein modification (down-regulated in the group of old animals, resveratrol group): these effects were reversed | % of res effect [7]: 107.0693% | Median RES [7]: 13740 | % of res effect [8]: 152.317% | Median RES [8]: 30053 | % of res effect [9]: 145.8017% | Median RES [9]: 62794 | % of res effect [10]: 164.0928% | Median RES [10]: 165689 | % of res effect [11]: 52.7% | Median RES [11]: 10650 | % of res effect [12]: 107.144% | Median RES [12]: 55723 | % of res effect [13]: 137.7081% | Median RES [13]: 73196 | % of res effect [14]: 101.3515% | Median RES [14]: 71501 | % of res effect [15]: 79.59% | Median RES [15]: 14990 | % of res effect (eukaryotic translation initiation factor 4E, Genebank ID BB406487 (two lines), listed as res): 101.5818% and 143.9243% | % of res effect [16]: 178.7778% | Median RES [16]: 12520 | % of res effect [17]: 126.3056% | Median RES [17]: 19940 | % of res effect [18]: 67.8% | Median RES [18]: 6555 | % of res effect [19]: 158.6897% | Median RES [19]: 48649 | % of res effect [20]: 190.9945% | Median RES [20]: 8279 | % of res effect [21]: 134.4155% | Median RES [21]: 40130 | % of res effect [22]: 85.98% | Median RES [22]: 16720 | % of res effect [23]: 171.8414% | Median RES [23]: 5532 | % of res effect [24]: 153.7873% | Median RES [24]: 150912 | % of res effect [25]: 127.2443% | Median RES [25]: 90964 | % of res effect [26]: 133.1523% | Median RES [26]: 107786 | % of res effect [27]: 106.9366% | Median RES [27]: 25035 | % of res effect [28]: 160.1528% | Median RES [28]: 6260 | % of res effect [29]: 56.11% | Median RES [29]: 6754 | % of res effect [30]: 179.6828% | Median RES [30]: 14280 | % of res effect [31]: 119.1558% | Median RES [31]: 8513 | % of res effect [32]: 80.68% | Median RES [32]: 10496 | % of res effect [33]: 161.6802% | Median RES [33]: 45140 | % of res effect [34]: 80.96% | Median RES [34]: 25890 | % of res effect [35]: 182.0376% | Median RES [35]: 91619 | % of res effect [36]: 104.1651% | Median RES [36]: 61436 | % of res effect [37]: 124.4234% | Median RES [37]: 9718 | % of res effect [38]: 78.35% | Median RES [38]: 14340 | % of res effect [39]: 86.67% | Median RES [39]: 16336 | % of res effect [40]: 52.89% | Median RES [40]: 86633 | share of age-changed genes changed in the direction of the group of younger adult mice (of 1285 genes, heart): 45.5% | % of res effect [41]: 104.7586% | Median RES [41]: 139883 | % of res effect [42]: 59.34% | Median RES [42]: 40073 | % of res effect [43]: 171.5674% | Median RES [43]: 13990 | % of res effect [44]: 63.71% | Median RES [44]: 52488 | % of res effect [45]: 71.59% | Median RES [45]: 200548 | % of res effect [46]: 210.2152% | Median RES [46]: 52165 | % of res effect [47]: 218.6485% | Median RES [47]: 4135 | % of res effect [48]: 76.7738% | Median RES [48]: 98966 | % of res effect [49]: 212.0408% | Median RES [49]: 19697 | expression of genes related to protein synthesis and protein folding (reduced in old animals, old animals fed resveratrol-supplemented diet): upregulated to or close to the level found in young animals | % of res effect [50]: 103.1963% | Median RES [50]: 23730 | % of res effect [51]: 152.3511% | Median RES [51]: 37971 | % of res effect [52]: 142.3463% | Median RES [52]: 33170 | % of res effect [53]: 86.14% | Median RES [53]: 11160 | Median RES (serine/threonine kinase 17b (apoptosis-inducing), Genebank ID AV173139 (two lines), listed as RES): 8039 and 12069 | % of res effect (serine/threonine kinase 17b (apoptosis-inducing), Genebank ID AV173139 (two lines), listed as res): 97.38% and 163.165% | % of res effect [54]: 173.4519% | Median RES [54]: 72667 | % of res effect [55]: 87.76% | Median RES [55]: 16650 | % of res effect [56]: 80.5962% | Median RES [56]: 203121 | % of res effect [57]: 121.5779% | Median RES [57]: 40710 | number of genes at a level of 80-90% compared to the young group (text b59, heart): 62 | number of genes that reached a level of 70-80% (text b59, heart): 53 | % of res effect [58]: 79.5126% | Median RES [58]: 4589 | % of res effect [59]: 54.0373% | Median RES [59]: 86773 | % of res effect [60]: 129.8764% | Median RES [60]: 19508 | % of res effect [61]: 94.11% | Median RES [61]: 53900 | % of res effect [62]: 97.81% | Median RES [62]: 7571 | % of res effect [63]: 151.8677% | Median RES [63]: 9725 | % of res effect [64]: 186.31% | Median RES [64]: 12090 | % of res effect [65]: 69.45% | Median RES [65]: 40250 | number of genes changed in the direction of the group of younger adult mice (within the 1285 genes significantly changed between young and old mice (at least 1.25-fold, p<0.01), heart): 585
